Reference: US20240033234A1, “THERAPEUTIC COMPOUNDS, FORMULATIONS, AND USE THEREOF” (Tvardi Therapeutics, Inc., priority 2022, published 2024)
Several values for one entry are separate records, joined by “and”; a condition that tells them apart may be missing. Identical values can stand only once.

Assay: Accelerated and long term stability study of TTI-101 (Batch A, Batch B): HPLC assay, purity, impurities and water content after storage at 5° C., 25° C./60% RH, 30° C./65% RH or 40° C./75% RH
Assay type: physicochemical
Details: for Impurities RRT 0.99: RRT of compound of formula (IV); for Impurities RRT 1.06: RRT of Compound 4
Method: Exemplary HPLC conditions: diluent was 0.1% trifluoroacetic acid (TFA) in acetonitrile, Mobile Phase A was 0.05% TFA in water, and Mobile Phase B was 0.05% TFA in acetonitrile, column (Agilent, Eclipse XDB-C18, 3.0×100 mm, particle size 1.8 μm), flow (0.425 mL/min), and detector (280 nm diode array).
Batch A was prepared analogously using Method 3 as described in Example 1. Batch B was prepared according to Method 5 as described in Example 1.
Samples of TTI-101 were stored at 5° C., 25° C./60% RH, 30° C./65% RH, or 40° C./75% RH. TTI-101 was stored in an LDPE bag enclosed with a Nylon cable tie and then transferred to another LDPE bag and enclosed with a Nylon cable tie. The enclosure was put into an HDPE bottle and closed with a polyethylene-lined polypropylene cap. The samples were stored under the above-identified conditions.
The samples were analyzed using HPLC with the exemplary conditions identified above. Relative retention time (RRT) for Compound 5 was about 0.83, Compound 4 was about 1.05-1.06, Compound 6 was about 1.15-1.17, and compound of formula (IV) was about 0.99.
• NA not applicable • NQ ≥0.02% and <0.05% • Avg average • Cmpd compound • — no peak • M month • RRT relative retention time

[1] = 5° C., 0 M, P1/P2, listed as Batch A
[2] = 5° C., 2 M, P1/P2, listed as Batch A
[3] = 5° C., 3 M, P1/P2, listed as Batch A
[4] = 5° C., 12 M, P1/P2, listed as Batch A
[5] = 25° C./60% RH, 0 M, P1/P2, listed as Batch A
[6] = 25° C./60% RH, 2 M, P1/P2, listed as Batch A

Structure (SMILES): COc1ccc(S(=O)(=O)Nc2cc(-c3c(O)ccc4ccccc34)c(O)c3ccccc23)cc1 [TTI-101]
- Assay (%) (5° C., 0 M, Avg): 99.8%
- Impurities RRT 1.06 (Cmpd 4) (5° C., 0 M, Avg): NQ (≥0.02% and <0.05%)
- Impurities RRT 1.17 (Cmpd 6) (5° C., 0 M, Avg): 0.13 area %
- Impurities RRT 1.32 (5° C., 0 M, Avg): NQ (≥0.02% and <0.05%)
- Impurities Total (5° C., 0 M, Avg): 0.1 area %
- Purity (%) (5° C., 0 M, Avg): 99.8%
- Water Content (%) (5° C., 0 M, Avg): <0.04%
- Impurities RRT 0.99 (5° C., 0 M, Avg): NQ (≥0.02% and <0.05%)
- Impurities RRT 1.32 (5° C., 0 M, P1/P2): NQ (≥0.02% and <0.05%)
- Impurities Total (5° C., 0 M, P1/P2): 0.1 area %
- Purity (%) (5° C., 0 M, P1/P2): 99.8%
- Water Content (%) (5° C., 0 M, P1/P2): <0.04%
- Assay (%) [1]: 99.9% and 99.7%
- Impurities RRT 1.17 (Cmpd 6) [1]: 0.13 area % and 0.12 area %
- Assay (%) (5° C., 2 M, Avg): 100.2%
- Impurities RRT 1.16 (Cmpd 6) (5° C., 2 M, Avg): 0.08 area %
- Impurities Total (5° C., 2 M, Avg): 0.1 area %
- Purity (%) (5° C., 2 M, Avg): 99.9%
- Water Content (%) (5° C., 2 M, Avg): <0.04%
- Impurities RRT 0.99 (5° C., 2 M, Avg): NQ (≥0.02% and <0.05%)
- Water Content (%) (5° C., 2 M, P1/P2): <0.04%
- Assay (%) [2]: 99.7% and 100.7%
- Purity (%) [2]: 99.9% and 100.0%
- Assay (%) (5° C., 3 M, Avg): 99.9%
- Impurities RRT 1.06 (Cmpd 4) (5° C., 3 M, Avg): 0.07 area %
- Impurities RRT 1.16 (Cmpd 6) (5° C., 3 M, Avg): 0.22 area %
- Impurities Total (5° C., 3 M, Avg): 0.3 area %
- Purity (%) (5° C., 3 M, Avg): 99.7%
- Water Content (%) (5° C., 3 M, Avg): <0.04%
- Impurities RRT 1.16 (Cmpd 6) (5° C., 3 M, P1/P2): 0.22 area %
- Impurities Total (5° C., 3 M, P1/P2): 0.3 area %
- Purity (%) (5° C., 3 M, P1/P2): 99.7%
- Water Content (%) (5° C., 3 M, P1/P2): <0.04%
- Assay (%) [3]: 100.2% and 99.5%
- Impurities RRT 1.06 (Cmpd 4) [3]: 0.06 area % and 0.07 area %
- Assay (%) (5° C., 6 M, Avg): 99.4%
- Impurities RRT 1.15 (Cmpd 6) (5° C., 6 M, Avg): 0.13 area %
- Impurities Total (5° C., 6 M, Avg): 0.1 area %
- Purity (%) (5° C., 6 M, Avg): 99.9%
- Water Content (%) (5° C., 6 M, Avg): <0.04%
- Impurities RRT 1.15 (Cmpd 6) (5° C., 6 M, P1/P2): 0.13 area %
- Impurities Total (5° C., 6 M, P1/P2): 0.1 area %
- Purity (%) (5° C., 6 M, P1/P2): 99.9%
- Water Content (%) (5° C., 6 M, P1/P2): <0.04%
- Assay (%) (5° C., 6 M, P1/P2, listed as Batch A): 100.6% and 98.3%
- Assay (%) (5° C., 9 M, Avg): 99.6%
- Impurities RRT 1.16 (Cmpd 6) (5° C., 9 M, Avg): 0.12 area %
- Impurities Total (5° C., 9 M, Avg): 0.1 area %
- Purity (%) (5° C., 9 M, Avg): 99.9%
- Water Content (%) (5° C., 9 M, Avg): <0.04%
- Assay (%) (5° C., 9 M, P1/P2): 99.6%
- Impurities Total (5° C., 9 M, P1/P2): 0.1 area %
- Purity (%) (5° C., 9 M, P1/P2): 99.9%
- Water Content (%) (5° C., 9 M, P1/P2): <0.04%
- Impurities RRT 1.16 (Cmpd 6) (5° C., 9 M, P1/P2, listed as Batch A): 0.12 area % and 0.11 area %
- Assay (%) (5° C., 12 M, Avg): 99.2%
- Impurities RRT 1.06 (Cmpd 4) (5° C., 12 M, Avg): NQ (≥0.02% and <0.05%)
- Impurities RRT 1.16 (Cmpd 6) (5° C., 12 M, Avg): 0.39 area %
- Impurities Total (5° C., 12 M, Avg): 0.4 area %
- Purity (%) (5° C., 12 M, Avg): 99.6%
- Water Content (%) (5° C., 12 M, Avg): 0.04%
- Impurities RRT 1.06 (Cmpd 4) (5° C., 12 M, P1/P2): NQ (≥0.02% and <0.05%)
- Impurities RRT 1.16 (Cmpd 6) (5° C., 12 M, P1/P2): 0.39 area %
- Impurities Total (5° C., 12 M, P1/P2): 0.4 area %
- Purity (%) (5° C., 12 M, P1/P2): 99.6%
- Assay (%) [4]: 99.1% and 99.2%
- Water Content (%) [4]: <0.04% and 0.04%
- Assay (%) (5° C., 18 M, Avg): 98.5%
- Impurities RRT 1.15 (Cmpd 6) (5° C., 18 M, Avg): 0.10 area %
- Impurities Total (5° C., 18 M, Avg): 0.1 area %
- Purity (%) (5° C., 18 M, Avg): 99.9%
- Water Content (%) (5° C., 18 M, Avg): <0.04%
- Impurities RRT 1.15 (Cmpd 6) (5° C., 18 M, P1/P2): 0.10 area %
- Impurities Total (5° C., 18 M, P1/P2): 0.1 area %
- Purity (%) (5° C., 18 M, P1/P2): 99.9%
- Water Content (%) (5° C., 18 M, P1/P2): <0.04%
- Impurities RRT 1.06 (5° C., 18 M, P1/P2): NQ (≥0.02% and <0.05%)
- Assay (%) (5° C., 18 M, P1/P2, listed as Batch A): 97.9% and 99.2%
- Assay (%) (5° C., 24 M, Avg): 99.7%
- Impurities RRT 1.16 (Cmpd 6) (5° C., 24 M, Avg): 0.11 area %
- Impurities Total (5° C., 24 M, Avg): 0.1 area %
- Purity (%) (5° C., 24 M, Avg): 99.9%
- Water Content (%) (5° C., 24 M, Avg): <0.04%
- Impurities RRT 1.16 (Cmpd 6) (5° C., 24 M, P1/P2): 0.11 area %
- Impurities Total (5° C., 24 M, P1/P2): 0.1 area %
- Purity (%) (5° C., 24 M, P1/P2): 99.9%
- Water Content (%) (5° C., 24 M, P1/P2): <0.04%
- Impurities RRT 1.06 (5° C., 24 M, P1/P2): NQ (≥0.02% and <0.05%)
- Assay (%) (5° C., 24 M, P1/P2, listed as Batch A): 100.2% and 99.3%
- Assay (%) (25° C./60% RH, 0 M, Avg): 99.8%
- Impurities RRT 1.06 (Cmpd 4) (25° C./60% RH, 0 M, Avg): NQ (≥0.02% and <0.05%)
- Impurities RRT 1.17 (Cmpd 6) (25° C./60% RH, 0 M, Avg): 0.13 area %
- Impurities RRT 1.32 (25° C./60% RH, 0 M, Avg): NQ (≥0.02% and <0.05%)
- Impurities Total (25° C./60% RH, 0 M, Avg): 0.1 area %
- Purity (%) (25° C./60% RH, 0 M, Avg): 99.8%
- Water Content (%) (25° C./60% RH, 0 M, Avg): <0.04%
- Impurities RRT 0.99 (25° C./60% RH, 0 M, Avg): NQ (≥0.02% and <0.05%)
- Impurities RRT 1.32 (25° C./60% RH, 0 M, P1/P2): NQ (≥0.02% and <0.05%)
- Impurities Total (25° C./60% RH, 0 M, P1/P2): 0.1 area %
- Purity (%) (25° C./60% RH, 0 M, P1/P2): 99.8%
- Water Content (%) (25° C./60% RH, 0 M, P1/P2): <0.04%
- Assay (%) [5]: 99.9% and 99.7%
- Impurities RRT 1.17 (Cmpd 6) [5]: 0.13 area % and 0.12 area %
- Assay (%) (25° C./60% RH, 2 M, Avg): 99.1%
- Impurities RRT 0.71 (25° C./60% RH, 2 M, Avg): 0.08 area %
- Impurities RRT 0.92 (25° C./60% RH, 2 M, Avg): NQ (≥0.02% and <0.05%)
- Impurities RRT 1.16 (Cmpd 6) (25° C./60% RH, 2 M, Avg): 0.05 area %
- Impurities RRT 1.29 (25° C./60% RH, 2 M, Avg): NQ (≥0.02% and <0.05%)
- Impurities Total (25° C./60% RH, 2 M, Avg): 0.1 area %
- Purity (%) (25° C./60% RH, 2 M, Avg): 99.9%
- Water Content (%) (25° C./60% RH, 2 M, Avg): <0.04%
- Water Content (%) (25° C./60% RH, 2 M, P1/P2): <0.04%
- Assay (%) [6]: 98.9% and 99.3%
- Impurities Total [6]: 0.05 area % and 0.1 area %
- Purity (%) [6]: 99.9% and 99.8%
- Assay (%) (25° C./60% RH, 3 M, Avg): 99.5%
- Impurities RRT 1.06 (Cmpd 4) (25° C./60% RH, 3 M, Avg): 0.07 area %
- Impurities RRT 1.16 (Cmpd 6) (25° C./60% RH, 3 M, Avg): 0.22 area %
- Impurities Total (25° C./60% RH, 3 M, Avg): 0.3 area %
- Purity (%) (25° C./60% RH, 3 M, Avg): 99.7%
- Water Content (%) (25° C./60% RH, 3 M, Avg): <0.04%
- Impurities RRT 1.06 (Cmpd 4) (25° C./60% RH, 3 M, P1/P2): 0.07 area %
- Impurities RRT 1.16 (Cmpd 6) (25° C./60% RH, 3 M, P1/P2): 0.22 area %
- Impurities Total (25° C./60% RH, 3 M, P1/P2): 0.3 area %
